pIC50: −log10 of the molar value. Like-named read-outs stand apart in the source and are kept apart here.

Holding throughout (format): cell-based
The target in test [1] is T1, 5-lipoxygenase (Homo sapiens (Human), UniProt P09917). Nature of the test: Stimulation of isolated PMN (neutrophils) for 5-LO products. Particulars: ranges indicate confidence interval, read-out: PMN dose-response. On the procedure: Briefly, blood was centrifuged at 300×g for 5 min at room temperature, plasma was collected and erythrocytes were removed after dextran sedimentation.
Isolated PMN (1×10^7 cells/mL) resuspended in Hank's balanced salt solution (HBSS, Lonza, Walkerville, MD) containing 1.6 mM CaCl2) were pre-incubated with test compounds for 5 min at 37° C. in the presence of 1 U/mL of adenosine deaminase. […] Reactions were stopped with the addition of 0.5 volume of cold MeOH:CH3CN (1:1) and 50 ng of PGB2 as internal standard, and samples were stored at −20° C. overnight for protein denaturation. […] Total 5-LO products quantified represents the sum of LTB4, its trans isomers, 20-COOH— and 20-OH-LTB4 and 5-hydroxyeicosatetraenoic acid.

The target of test [2] is T1, 5-lipoxygenase. Nature of the test: Stimulation of HEK293 cells stably transfected with 5-LO and FLAP; total 5-LO products by HPLC. The following applies: HEK293 cells expressing 5-LO and FLAP; ranges indicate confidence interval; read-out: HEK Dose-response.
Protocol: HEK293 cells were detached by trypsinization and re-suspended in Hank's balanced salt solution containing 1.6 mM CaCl2). Cells (1×10^6 cells/mL) were preincubated at 37° C. with the test compounds or their diluent for 5 minutes and were then stimulated at 37° C. with 10 μM ionophore A23187 and 10 μM AA for 15 min. Stimulations were stopped by adding 0.5 volumes of a methanol:acetonitrile (1:1) solution containing 100 ng/mL each of PGB2 and 19-OH-PGB2 as internal standards, and samples were then kept at −20° C. overnight for protein denaturation. […] Total 5-LO products quantified represents the sum of LTB4, its trans isomers and 5-hydroxyeicosatetraenoic acid.
Test [3] has as its target T1, 5-lipoxygenase. Nature of the test: Ex vivo whole blood stimulation with zymosan; total 5-LO products. The following applies: zymosan-stimulated whole blood; read-out: Whole blood dose-response. The protocol: Each compound or its diluent was added to heparinized blood obtained from healthy donors (1 mL) at the indicated concentration and incubated for 10 min at 37° C. in a water bath. Following incubations, 125 μL of 40 mg/mL opsonised zymosan was added to each sample, gently vortexed and incubated for 30 min at 37° C. Samples were then centrifuged for 10 min at 960×g at 4° C. Plasma, 350 μL, was removed and added to 1.2 ml of methanol:acetonitrile (1:1) and 50 ng of PGB2 as internal standard. Samples were left overnight at −20° C. for protein denaturation. […] Total 5-LO products quantified represents the sum of LTB4, its trans isomers, 20-COOH— and 20-OH-LTB4 and 5-hydroxyeicosatetraenoic acid.

A further test addresses COX-1 (Homo sapiens (Human), UniProt P23219). Nature of the test: COX-1 inhibitory activity in human platelets. Particulars: read-out: Percent inhibition at 1 μM.
The next test deals with COX-2 (Homo sapiens (Human), UniProt P35354). As to the kind of experiment: COX-2 activity, products from LPS-primed human neutrophils. The following applies: 100% no inhibition, 0% complete inhibition.
Setting [4] is: read-out: % of control COX-2 activity, n = 1.
Setting [5] is: read-out: % of control COX-2 activity, n = 2.

Chain of COX-2 (P35354 18-604): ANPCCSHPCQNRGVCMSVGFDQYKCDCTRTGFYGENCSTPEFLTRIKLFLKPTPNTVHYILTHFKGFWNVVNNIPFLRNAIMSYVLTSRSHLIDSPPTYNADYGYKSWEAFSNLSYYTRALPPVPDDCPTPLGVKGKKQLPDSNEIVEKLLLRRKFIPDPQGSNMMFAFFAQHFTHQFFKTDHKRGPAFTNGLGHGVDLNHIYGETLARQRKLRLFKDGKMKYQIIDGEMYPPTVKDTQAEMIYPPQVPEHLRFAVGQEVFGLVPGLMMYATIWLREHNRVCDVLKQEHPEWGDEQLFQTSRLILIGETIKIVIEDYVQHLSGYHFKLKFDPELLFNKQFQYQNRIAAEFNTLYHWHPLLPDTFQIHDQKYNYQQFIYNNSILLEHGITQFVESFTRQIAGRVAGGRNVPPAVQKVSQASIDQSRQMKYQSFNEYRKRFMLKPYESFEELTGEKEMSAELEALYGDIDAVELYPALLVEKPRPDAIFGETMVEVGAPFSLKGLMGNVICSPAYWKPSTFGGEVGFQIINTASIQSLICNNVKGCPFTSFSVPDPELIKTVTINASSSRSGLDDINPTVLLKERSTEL
Chain of COX-1 (P23219 24-599): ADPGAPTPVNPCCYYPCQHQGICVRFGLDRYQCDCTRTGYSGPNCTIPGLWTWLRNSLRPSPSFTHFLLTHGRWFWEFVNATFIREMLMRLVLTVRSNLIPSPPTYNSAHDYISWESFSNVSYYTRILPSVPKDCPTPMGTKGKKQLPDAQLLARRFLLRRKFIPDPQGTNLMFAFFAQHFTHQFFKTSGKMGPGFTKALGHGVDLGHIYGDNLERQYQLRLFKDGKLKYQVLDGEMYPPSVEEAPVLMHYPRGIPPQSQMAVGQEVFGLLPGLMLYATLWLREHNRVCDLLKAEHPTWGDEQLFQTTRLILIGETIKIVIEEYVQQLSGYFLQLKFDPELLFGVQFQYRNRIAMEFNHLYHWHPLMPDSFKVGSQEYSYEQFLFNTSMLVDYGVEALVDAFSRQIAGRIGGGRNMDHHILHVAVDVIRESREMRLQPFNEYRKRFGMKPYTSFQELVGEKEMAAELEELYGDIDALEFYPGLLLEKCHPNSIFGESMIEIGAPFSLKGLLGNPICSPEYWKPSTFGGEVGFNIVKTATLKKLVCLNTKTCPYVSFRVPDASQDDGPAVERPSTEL
T1 sequence (P09917 whole entry): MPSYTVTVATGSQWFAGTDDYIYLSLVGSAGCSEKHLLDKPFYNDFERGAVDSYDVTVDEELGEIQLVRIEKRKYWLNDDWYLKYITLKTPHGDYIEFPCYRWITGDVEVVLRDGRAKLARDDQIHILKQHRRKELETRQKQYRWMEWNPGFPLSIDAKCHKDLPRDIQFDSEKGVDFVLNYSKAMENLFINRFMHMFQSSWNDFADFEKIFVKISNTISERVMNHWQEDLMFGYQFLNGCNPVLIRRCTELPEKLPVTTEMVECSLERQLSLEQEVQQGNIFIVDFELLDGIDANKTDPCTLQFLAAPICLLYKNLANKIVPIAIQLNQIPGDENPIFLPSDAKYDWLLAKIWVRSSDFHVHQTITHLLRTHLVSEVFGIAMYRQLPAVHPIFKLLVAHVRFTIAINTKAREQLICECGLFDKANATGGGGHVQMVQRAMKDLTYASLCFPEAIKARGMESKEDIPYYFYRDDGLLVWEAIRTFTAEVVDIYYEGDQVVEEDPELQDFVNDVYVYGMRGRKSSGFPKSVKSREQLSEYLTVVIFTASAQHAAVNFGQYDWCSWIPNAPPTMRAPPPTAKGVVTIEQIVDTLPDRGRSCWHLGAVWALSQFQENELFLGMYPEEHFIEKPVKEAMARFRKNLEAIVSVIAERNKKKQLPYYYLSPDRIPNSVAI

Turning to `O=C(C=Cc1ccc(O)c(O)c1)OCC=Cc1ccccc1` (stereo in doubt) [Compound 4, (E)-(Z)-3-phenylallyl 3-(3,4-dihydroxyphenyl)acrylate], at 5-lipoxygenase [1], the pIC50 was 6.12. For `O=C(/C=C/c1ccc(O)c(O)c1)OCCc1ccccc1` [CAPE, caffeic acid phenethyl ester, reference compound], the pIC50 is 5.92 to 6.19 on 5-lipoxygenase [2], 5.96 to 6.08 on 5-lipoxygenase [1] and 5.47 on 5-lipoxygenase [3]. Regarding `O=C(CCc1ccc(O)c(O)c1)OCCCCc1ccccc1` [Compound 1, 4-phenylbutyl 3-(3,4-dihydroxyphenyl)propanoate], the pIC50 at 5-lipoxygenase [1] is 6.06. As for `O=C(CCc1ccc(O)c(O)c1)OCCCCCc1ccccc1` [Compound 2, 5-phenylpentyl 3-(3,4-dihydroxyphenyl)propanoate], the pIC50 at 5-lipoxygenase [1] is 6.07; on 5-lipoxygenase [3] it was 5.55.

In the case of `O=C(CCc1ccc(O)c(O)c1)OCCCCCCc1ccccc1` [Compound 3, 6-phenylhexyl 3-(3,4-dihydroxyphenyl)propanoate], the pIC50 on 5-lipoxygenase [1] is 6.29; on 5-lipoxygenase [3], 5.62. With `COc1cc(/C=C/C(=O)OCCCc2ccccc2)cc(OC)c1O` [Compound 6, (E)-3-phenylpropyl 3-(4-hydroxy-3,5-dimethoxyphenyl)acrylate], the pIC50 on 5-lipoxygenase [1] was 6.46. Still for that read-out and setting: the value for `C=C(C)CCOC(=O)/C=C/c1ccc(O)c(O)c1` [Compound 17, (E)-3-methylbut-3-en-1-yl 3-(3,4-dihydroxyphenyl)acrylate] was 6.07. As for `O=C(/C=C/c1ccc(O)c(O)c1)OCCc1ccc(F)cc1` [Compound 20, (E)-4-fluorophenethyl 3-(3,4-dihydroxyphenyl)acrylate], at COX-1, the inhibition at 1 µM is 37.2%. `Cc1ccc(CCOC(=O)/C=C/c2ccc(O)c(O)c2)cc1` [Compound 21, (E)-4-methylphenethyl 3-(3,4-dihydroxyphenyl)acrylate]: on COX-1, the inhibition at 1 µM was 44.6%. On the same count and under the same terms, the value for `COc1ccc(CCOC(=O)/C=C/c2ccc(O)c(O)c2)cc1` [Compound 22, (E)-4-methoxyphenethyl 3-(3,4-dihydroxyphenyl)acrylate] was 39.6%. As to `O=C(/C=C/c1ccc(O)c(O)c1)OCCCc1ccccc1` [Compound 25, (E)-3-phenylpropyl 3-(3,4-dihydroxyphenyl)acrylate], the pIC50 on 5-lipoxygenase [1] was 6.09 to 6.23. The figures for the remaining activity at 1 µM at COX-2 (setting [4]), on COX-2 (setting [5]) and on COX-2 (read-out: Avg % of control) were 34.9%, 81.3% and 58.1%, respectively. On to `O=C(/C=C/c1ccc(O)c(O)c1)OCC(c1ccccc1)c1ccccc1` [Compound 27, (E)-2,2-diphenylethyl 3-(3,4-dihydroxyphenyl)acrylate], for which the pIC50 at 5-lipoxygenase [1] was 6.14. Still for that read-out and setting: next, `O=C(/C=C/c1ccc(O)c(O)c1)OC/C=C/c1ccccc1` [Compound 31, (E)-cinnamyl 3-(3,4-dihydroxyphenyl)acrylate]: 5.99. As to `O=C(CCc1ccc(O)c(O)c1)OCCc1ccccc1` [Compound 32, phenethyl 3-(3,4-dihydroxyphenyl)propanoate], on 5-lipoxygenase [1], the pIC50 was 6.00. Further, the remaining activity at 1 µM at COX-2 (setting [4]) amounted to 34.3%; at COX-2 (setting [5]), 69%; at COX-2 (read-out: Avg % of control), 51.6%. Further, on COX-1, the inhibition at 1 µM was determined as 42%. On to `O=C(CCc1ccc(O)c(O)c1)OCCCc1ccccc1` [Compound 33, 3-phenylpropyl 3-(3,4-dihydroxyphenyl)propanoate], for which the pIC50 at 5-lipoxygenase [1] is 6.05. Besides, the remaining activity at 1 µM on COX-2 (setting [4]) was 7.6%; at COX-2 (setting [5]) it was 45.3%; on COX-2 (read-out: Avg % of control), 26.4%.

Regarding `O=C(Cc1ccc(O)c(O)c1)OCCc1ccccc1` [Compound 34, phenethyl 2-(3,4-dihydroxyphenyl)acetate], the inhibition at 1 µM at COX-1 is less than 20%.

For the compound `O=C(Cc1ccc(O)c(O)c1)OCCCc1ccccc1` [Compound 35, 3-phenylpropyl 2-(3,4-dihydroxyphenyl)acetate], the pIC50 at 5-lipoxygenase [1] is 6.10. As to `O=C(OCCc1ccccc1)c1ccc(O)c(O)c1` [Compound 36, phenethyl 3,4-dihydroxybenzoate], the inhibition at 1 µM at COX-1 was less than 20%. Regarding `O=C(OCCc1ccccc1)c1cc(O)c(O)c(O)c1` [Compound 38, phenethyl 3,4,5-trihydroxybenzoate], the values for the pIC50 on 5-lipoxygenase [1] and at 5-lipoxygenase [3] were 6.10 and 5.55, respectively. In the case of `O=C(/C=C/c1ccc(O)c(O)c1)OCCCCc1ccccc1` [Compound 39, (E)-4-phenylbutyl 3-(3,4-dihydroxyphenyl)acrylate], the pIC50 at 5-lipoxygenase [1] was 6.22. Besides, the values for the remaining activity at 1 µM on COX-2 (setting [4]), on COX-2 (setting [5]) and on COX-2 (read-out: Avg % of control) were 62.9%, 90.2% and 76.6%, respectively. The like results for `O=C(/C=C/c1ccc(O)c(O)c1)OCCCCCc1ccccc1` [Compound 40, (E)-5-phenylpentyl 3-(3,4-dihydroxyphenyl)acrylate] were, in that order, 6.28, 37.8%, 86.4% and 62.1%.

Consider `O=C(/C=C/c1ccc(O)c(O)c1)OCCCCCCc1ccccc1` [Compound 41, (E)-6-phenylhexyl 3-(3,4-dihydroxyphenyl)acrylate], for which the pIC50 on 5-lipoxygenase [1] is 6.08.

Consider `COc1cc(/C=C/C(=O)OCCc2ccccc2)cc(OC)c1O` [Compound 45, (E)-phenethyl 3-(4-hydroxy-3,5-dimethoxyphenyl)acrylate], for which, on 5-lipoxygenase [1], the pIC50 was 6.52. As to `O=C(/C=C/c1ccc(O)c(O)c1)NCCCc1ccccc1` [Compound 55, (E)-3-(3,4-dihydroxyphenyl)-N-(3-phenylpropyl)acrylamide], the pIC50 on 5-lipoxygenase [1] is 5.80. The remaining activity at 1 µM at COX-2 (setting [4]) was determined as 103%; at COX-2 (setting [5]) it was 101%; at COX-2 (read-out: Avg % of control), 102%. Consider `O=C(/C=C/c1ccc(O)c(O)c1)NCCCCc1ccccc1` [Compound 56, (E)-3-(3,4-dihydroxyphenyl)-N-(4-phenylbutyl)acrylamide], for which the pIC50 at 5-lipoxygenase [1] was 6.04. With `O=C(/C=C/c1ccc(O)c(O)c1)CCc1ccccc1` [Compound 59, (E)-1-(3,4-dihydroxyphenyl)-5-phenylpent-1-en-3-one], the pIC50 at 5-lipoxygenase [1] is 6.08.

(Values after patent US20240425441A9, “MODULATORS OF LIPOXYGENASE AND CYCLOOXYGENASE ENZYME ACTIVITY” (Université de Moncton, priority 2016, published 2024).)
